Measurements reported in patent US20070020298A1, “Inhalant formulation containing sulfoalkyl ether gamma-cyclodextrin and corticosteroid” (priority 2003, published 2007).
Read-outs that look alike come from different tables or passages of the source.

How the values were obtained:
[1] = Stability of fluticasone propionate in aqueous SBE6.1-γ-CD solution by HPLC (Example 13); format: physicochemical; details: for Stability by HPLC: 240 μg/mL in 10% SBE-γ-CD
Method: SBE-γ-CD is suitable for stabilizing corticosteroids in aqueous solutions. A stability study was conducted using fluticasone propionate in aqueous solutions stored at 25° C. or 40° C. having a pH of 4.5 or 6.0.
Fluticasone propionate. A citrate buffer solution at a pH of 4.5 was prepared by mixing various portions of 0.003 M citric acid with 0.003 M of trisodium citrate. A phosphate buffer solution at a pH of 6.0 was prepared by mixing various portions of 0.003 M monobasic sodium phosphate with 0.003 M of dibasic sodium phosphate. These stock solutions contained 10% w/v SBE-Gamma (D.S.=6.1). An excess of fluticasone propionate was added to the vials and equilibrated on a rocker for three days. The samples were then filtered using a PVDF 0.22 μm syringe filter. Aliquots of the solutions were placed into clear glass 2 mL serum vials with aluminum crimp caps and daikyo flurotec septums, and stored at 25° C. and 40° C. Control samples were stored at 5° C. but are not reported here. HPLC analysis of the samples was performed initially, (at time 0), and after 30, 60, 90, and 120 days storage. A stability-indicating HPLC method was used.

[2] = Stability of mometasone furoate in aqueous SBE6.1-γ-CD solution by HPLC (Example 13); format: physicochemical; details: for Stability by HPLC: 240 μg/mL in […] SBE-γ-CD
Method: A similar study was conducted for mometasone furoate except that a pH of 3.5 or 4.5 was used.
Mometasone furoate. Citrate buffer solutions at a pH of 3.5 and 4.5 were prepared by mixing various portions of 3 mM citric acid with 3 mM sodium citrate. […] An excess of mometasone furoate was added to the vials and equilibrated on a rocker for three days. The samples were then filtered using a PVDF 0.22 μm syringe filter. Aliquots of the solutions were placed into serum vials with rubber stoppers and aluminum crimp seal caps, and stored at 25° C. and 40° C. Control samples were stored at 5° C. […] A stability-indicating HPLC method was used.

[3] = nasal spray in aqueous sulfobutylether-β-cyclodextrin buffer, healthy volunteers; cited from earlier work
[4] = during the time period of observation, concentrations typically used to solubilize pharmaceutical formulations; cited from earlier work

## CCC(=O)O[C@]1(C(=O)CO)[C@@H](C)C[C@H]2[C@@H]3CCC4=CC(=O)C=C[C@]4(C)[C@@]3(Cl)[C@@H](O)C[C@@]21C [Beclomethasone 17-monopropionate, beclomethasone 17-monopropionate]
0.04 M SBE3.4 γ-CD
  Solubility of beclomethasone form: 0.04 M → 10621.6 μg/mL
0.04 M SBE5.24 γ-CD
  Solubility of beclomethasone form: 0.04 M → 9500.8 μg/mL
0.04 M SBE6.1 γ-CD
  Solubility of beclomethasone form: 0.04 M → 11666.9 μg/mL
0.04 M SBE6.7 β-CD
  Solubility of beclomethasone form: 0.04 M → 6799.6 μg/mL
0.04 M SBE7.5 γ-CD
  Solubility of beclomethasone form: 0.04 M → 8539.1 μg/mL
0.04 M γ-CD
  Solubility of beclomethasone form: 0.04 M → 136.9 μg/mL

## CCC(=O)OCC(=O)[C@@]1(O)[C@@H](C)C[C@H]2[C@@H]3CCC4=CC(=O)C=C[C@]4(C)[C@@]3(Cl)[C@@H](O)C[C@@]21C [Beclomethasone 21-monopropionate, beclomethasone 21-monopropionate]
0.04 M SBE3.4 γ-CD
  Solubility of beclomethasone form: 0.04 M → 172.6 μg/mL
0.04 M SBE5.24 γ-CD
  Solubility of beclomethasone form: 0.04 M → 139.8 μg/mL
0.04 M SBE6.1 γ-CD
  Solubility of beclomethasone form: 0.04 M → 153.8 μg/mL
0.04 M SBE6.7 β-CD
  Solubility of beclomethasone form: 0.04 M → 50.6 μg/mL
0.04 M SBE7.5 γ-CD
  Solubility of beclomethasone form: 0.04 M → 122.4 μg/mL
0.04 M γ-CD
  Solubility of beclomethasone form: 0.04 M → 9.4 μg/mL

## CCC(=O)O[C@]1(C(=O)SCF)[C@H](C)C[C@H]2[C@@H]3C[C@H](F)C4=CC(=O)C=C[C@]4(C)[C@@]3(F)[C@@H](O)C[C@@]21C [Fluticasone propionate, fluticasone propionate]
[1]; pH = 4.5/25° C., 1 Month
  Stability by HPLC: 97.88 Area %
[1]; pH = 4.5/25° C., 2 Months
  Stability by HPLC: 98.15 Area %
[1]; pH = 4.5/25° C., 3 Months
  Stability by HPLC: 97.74 Area %
[1]; pH = 4.5/25° C., 4 Months
  Stability by HPLC: 97.36 Area %
[1]; pH = 4.5/25° C., Initial
  Stability by HPLC: 97.99 Area %
[1]; pH = 4.5/40° C., 1 Month
  Stability by HPLC: 97.46 Area %
[1]; pH = 4.5/40° C., 2 Months
  Stability by HPLC: 97.75 Area %
[1]; pH = 4.5/40° C., 3 Months
  Stability by HPLC: 97.41 Area %
[1]; pH = 4.5/40° C., 4 Months
  Stability by HPLC: 96.56 Area %
[1]; pH = 4.5/40° C., Initial
  Stability by HPLC: 97.84 Area %
[1]; after a period of 4 months in SBE-γ-CD solution
  change in the amount of fluticasone propionate: little to no change
[1]; at both pHs (4.5 and 6.0)
  T90: greater than five years
[1]; fluticasone propionate formulation of the invention
  estimated shelf-life: greater than two years

## C[C@@H]1C[C@H]2[C@@H]3CCC4=CC(=O)C=C[C@]4(C)[C@@]3(Cl)[C@@H](O)C[C@]2(C)[C@@]1(OC(=O)c1ccco1)C(=O)CCl [Mometasone furoate, mometasone furoate]
[2]; pH = 3.5/25° C., 1 Month
  Stability by HPLC: 99.74 Area %
[2]; pH = 3.5/25° C., 1 Week
  Stability by HPLC: 99.82 Area %
[2]; pH = 3.5/25° C., 2 Months
  Stability by HPLC: 99.73 Area %
[2]; pH = 3.5/25° C., 2 Weeks
  Stability by HPLC: 99.79 Area %
[2]; pH = 3.5/25° C., 3 Months
  Stability by HPLC: 99.68 Area %
[2]; pH = 3.5/25° C., 6 Months
  Stability by HPLC: 99.36 Area %
[2]; pH = 3.5/25° C., Initial
  Stability by HPLC: 99.72 Area %
[2]; pH = 3.5/40° C., 1 Month
  Stability by HPLC: 99.10 Area %
[2]; pH = 3.5/40° C., 1 Week
  Stability by HPLC: 99.72 Area %
[2]; pH = 3.5/40° C., 2 Months
  Stability by HPLC: 98.56 Area %
[2]; pH = 3.5/40° C., 2 Weeks
  Stability by HPLC: 99.55 Area %
[2]; pH = 3.5/40° C., 3 Months
  Stability by HPLC: 97.97 Area %
[2]; pH = 3.5/40° C., 6 Months
  Stability by HPLC: 94.97 Area %
[2]; pH = 3.5/40° C., Initial
  Stability by HPLC: 99.72 Area %
[2]; pH = 4.5/40° C., 1 Month
  Stability by HPLC: 99.19 Area %
[2]; pH = 4.5/40° C., 1 Week
  Stability by HPLC: 99.72 Area %
[2]; pH = 4.5/40° C., 2 Months
  Stability by HPLC: 98.65 Area %
[2]; pH = 4.5/40° C., 2 Weeks
  Stability by HPLC: 99.57 Area %
[2]; pH = 4.5/40° C., 3 Months
  Stability by HPLC: 97.85 Area %
[2]; pH = 4.5/40° C., 6 Months
  Stability by HPLC: 96.01 Area %
[2]; pH = 4.5/40° C., Initial
  Stability by HPLC: 99.76 Area %
[2]; pH = 4.5 @ 25° C., 1 Month
  Stability by HPLC: 99.73 Area %
[2]; pH = 4.5 @ 25° C., 1 Week
  Stability by HPLC: 99.82 Area %
[2]; pH = 4.5 @ 25° C., 2 Months
  Stability by HPLC: 99.71 Area %
[2]; pH = 4.5 @ 25° C., 2 Weeks
  Stability by HPLC: 99.81 Area %
[2]; pH = 4.5 @ 25° C., 3 Months
  Stability by HPLC: 99.62 Area %
[2]; pH = 4.5 @ 25° C., 6 Months
  Stability by HPLC: 99.47 Area %
[2]; pH = 4.5 @ 25° C., Initial
  Stability by HPLC: 99.76 Area %
[2]; both pH's (3.5 and 4.5) at 25° C.
  T90: exceed two years
[2]; mometasone furoate formulation of the invention
  estimated shelf-life: greater than two years
[2]; pH 4.5, 25° C.
  T90, stable for: six to eight years

## Cc1ncc2n1-c1ccc(Cl)cc1C(c1ccccc1F)=NC2 [midazolam]
[3]
  side effects: No serious side effects

## Sulfobutyl ether β-cyclodextrin [CAPTISOL]
[4]
  hemolytic behavior: essentially no hemolytic behavior
